Experimental data published in patent US20230303497A1, “BENZYLAMINE OR BENZYL ALCOHOL DERIVATIVE AND USES THEREOF” (CHENGDU HYPERWAY PHARMACEUTICALS CO., LTD, priority 2020, published 2023).

What follows are compounds tested against human NaV1.8 ion channel (Homo sapiens (Human), UniProt Q9Y5Y9) (assay: Compound inhibition activity on human NaV1.8 ion channel in HEK293 cells (whole-cell patch clamp)). Conditions: 100 nm concentration; HEK293 cells, resting protocol.
Assay type: cell-based
Procedure: Test Case 1: Compound Inhibition Activity on Human NaV1.8 Ion Channel in HEK293 Cells
The final concentrations of the test compounds are prepared on the same day and then dissolved in extracellular solution. […] The intracellular solution (mM) contains: Aspartic acid, 140; MgCl2, 2; EGTA 11; HEPES, 10; pH 7.2 (CsOH titration). All test solutions contain 1 μM TTX.
The test solution are stored at a concentration of 3 mM in dimethyl sulfoxide (DMSO). The solutions will be dissolved in extracellular solution on the day of testing and prepared to the required concentration.
All experiments were performed at room temperature. Each cell itself is taken as the corresponding control.
At least one cell is tested per concentration.
HEK293 cell steady expressing NaV1.8 ion channel.
The intracellular fluid (mM) contains: Aspartic acid, 140; MgCl2, 2; EGTA 11; HEPES, 10; pH 7.2 (CsOH titration). […] Electrodes are drawn with PC-10 (Narishige, Japan). Recording is performed with whole-cell diaphragm clamp.
The cells are clamped at −80 mV and then depolarized to 10 mV with a sustained 10 ms square wave to give a Nav1.8 current. This procedure is repeated every 5 seconds.

Chain of human NaV1.8 ion channel (Q9Y5Y9 whole entry): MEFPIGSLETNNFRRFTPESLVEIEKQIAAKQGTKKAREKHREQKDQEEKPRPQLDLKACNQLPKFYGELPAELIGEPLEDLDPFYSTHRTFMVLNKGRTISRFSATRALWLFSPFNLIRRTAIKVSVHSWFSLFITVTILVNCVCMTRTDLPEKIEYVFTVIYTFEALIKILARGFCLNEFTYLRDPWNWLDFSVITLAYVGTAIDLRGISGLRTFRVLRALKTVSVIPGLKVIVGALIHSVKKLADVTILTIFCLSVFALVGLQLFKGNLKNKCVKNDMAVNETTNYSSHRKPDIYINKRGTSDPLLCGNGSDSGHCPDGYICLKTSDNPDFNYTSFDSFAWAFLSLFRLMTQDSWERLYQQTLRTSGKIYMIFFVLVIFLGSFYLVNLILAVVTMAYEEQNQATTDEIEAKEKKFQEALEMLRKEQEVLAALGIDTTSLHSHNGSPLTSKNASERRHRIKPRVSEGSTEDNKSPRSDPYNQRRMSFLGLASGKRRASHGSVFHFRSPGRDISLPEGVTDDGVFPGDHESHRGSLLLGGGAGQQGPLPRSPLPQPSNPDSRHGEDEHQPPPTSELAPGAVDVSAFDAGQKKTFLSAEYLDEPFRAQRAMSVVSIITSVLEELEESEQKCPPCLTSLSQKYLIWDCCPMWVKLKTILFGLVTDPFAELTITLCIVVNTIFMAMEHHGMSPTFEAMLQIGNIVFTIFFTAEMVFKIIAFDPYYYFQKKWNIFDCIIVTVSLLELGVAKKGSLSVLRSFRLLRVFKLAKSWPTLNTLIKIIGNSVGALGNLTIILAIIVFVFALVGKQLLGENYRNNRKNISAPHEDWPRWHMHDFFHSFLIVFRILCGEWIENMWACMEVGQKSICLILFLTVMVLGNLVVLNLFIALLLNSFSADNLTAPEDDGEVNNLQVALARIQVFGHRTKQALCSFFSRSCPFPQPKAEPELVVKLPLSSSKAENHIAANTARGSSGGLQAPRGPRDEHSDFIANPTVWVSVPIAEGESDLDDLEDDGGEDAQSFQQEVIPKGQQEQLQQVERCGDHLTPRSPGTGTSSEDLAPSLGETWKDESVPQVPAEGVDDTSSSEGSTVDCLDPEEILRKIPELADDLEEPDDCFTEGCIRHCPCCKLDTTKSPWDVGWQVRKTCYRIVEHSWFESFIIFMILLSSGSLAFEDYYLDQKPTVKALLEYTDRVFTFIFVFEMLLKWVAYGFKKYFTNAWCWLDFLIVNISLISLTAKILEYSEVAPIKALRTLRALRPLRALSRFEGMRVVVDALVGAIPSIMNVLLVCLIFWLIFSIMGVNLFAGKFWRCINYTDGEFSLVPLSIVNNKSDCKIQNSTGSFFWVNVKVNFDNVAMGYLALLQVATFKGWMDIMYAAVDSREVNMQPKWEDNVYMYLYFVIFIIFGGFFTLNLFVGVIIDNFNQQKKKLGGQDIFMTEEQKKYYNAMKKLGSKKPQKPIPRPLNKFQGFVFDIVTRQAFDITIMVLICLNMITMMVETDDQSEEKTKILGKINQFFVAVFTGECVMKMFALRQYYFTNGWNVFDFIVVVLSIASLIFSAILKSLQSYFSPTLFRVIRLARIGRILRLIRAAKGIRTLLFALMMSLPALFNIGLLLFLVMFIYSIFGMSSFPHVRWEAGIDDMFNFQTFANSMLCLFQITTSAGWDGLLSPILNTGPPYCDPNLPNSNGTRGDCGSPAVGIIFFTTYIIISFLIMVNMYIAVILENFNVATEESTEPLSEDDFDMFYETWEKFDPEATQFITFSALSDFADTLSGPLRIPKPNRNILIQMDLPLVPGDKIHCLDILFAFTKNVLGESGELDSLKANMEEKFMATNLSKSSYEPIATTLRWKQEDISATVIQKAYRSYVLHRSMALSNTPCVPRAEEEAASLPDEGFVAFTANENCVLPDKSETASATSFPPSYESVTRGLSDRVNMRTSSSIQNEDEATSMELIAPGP

| SMILES | Inhibition ratio of Nav1.8 (Activity of inhibition) |
| --- | --- |
| Cc1cc(F)ccc1Oc1cc(C2CC2)c(C(F)(F)F)cc1C(=O)Nc1ccc(F)c(C(N)CCO)c1 (centres unmarked) [Example 3, N-(3-(1-Amino-3-hydroxypropyl)-4-fluorophenyl)-4-cyclopropyl-2-(4-fluoro-2-methylphenoxy)-5-(trifluoromethyl) benzamide] | A (A >= 80) |
| Cc1cc(F)ccc1Oc1ccc(C(F)(F)F)cc1C(=O)Nc1ccc(F)c(C2CCCN2)c1 (centres unmarked) [Example 15, 2-(4-fluoro-2-methylphenoxy)-N-(4-fluoro-3-(pyrrolidin-2-yl)phenyl)-5-(trifluoromethyl) benzamide] | C (50 >C >= 20) |
| Cc1cc(F)ccc1Oc1ccc(C(F)(F)F)cc1C(=O)Nc1ccc(F)c(C2CCC(C(N)=O)N2)c1 (centres unmarked) [Example 16, 5-(2-fluoro-5-(2-(4-fluoro-2-methylphenoxy)-5-(trifluoromethyl)benzamido)phenyl) pyrrolidine-2-carboxacylamino] | D (D < 20) |
| Cc1cc(F)ccc1Oc1ccc(C(F)(F)F)cc1C(=O)Nc1ccc(F)c(CC(N)C(N)=O)c1 (centres unmarked) [Example 17, N-(3-(2,3-Diamino-3-oxopropyl)-4-fluorophenyl)-2-(4-fluoro-2-methylphenoxy)-5-(trifluoromethyl) benzamide] | D (D < 20) |

Same assay, conditions: 100 nm concentration; HEK293 cells, resting protocol; read-out: Inhibition ratio of Nav1.8 (Activity of inhibition)

| SMILES | inhibition at 0.1 µM |
| --- | --- |
| Cc1cc(F)ccc1Oc1ccc(C(F)(F)F)cc1C(=O)Nc1ccc(F)c(C(N)CC(=O)O)c1 (centres unmarked) [Example 2, 3-Amino-3-(2-fluoro-5-(2-(4-fluoro-2-methylphenoxy)-5-(trifluoromethyl)benzamido)phenyl) propanoic acid] | < 20% |
| COCCC(N)c1cc(NC(=O)c2cc(C(F)(F)F)c(C3CC3)cc2Oc2ccc(F)cc2C)ccc1F (centres unmarked) [Example 5, N-(3-(1-Amino-3-methoxypropyl)-4-fluorophenyl)-4-cyclopropyl-2-(4-fluoro-2-methylphenoxy)-5-(trifluoromethyl) benzamide] | 50 to 80% |
| CC(=O)NC(CCO)c1cc(NC(=O)c2cc(C(F)(F)F)c(C3CC3)cc2Oc2ccc(F)cc2C)ccc1F (centres unmarked) [Example 6, N-(3-(1-Acetylamino-3-hydroxypropyl)-4-fluorophenyl)-4-cyclopropyl-2-(4-fluoro-2-methylphenoxy)-5-(trifluoromethyl) benzamide] | 50 to 80% |
| CNC(CCO)c1cc(NC(=O)c2cc(C(F)(F)F)c(C3CC3)cc2Oc2ccc(F)cc2C)ccc1F (centres unmarked) [Example 7, 4-Cyclopropyl-2-(4-fluoro-2-methylphenoxy)-N-(4-fluoro-3-(3-hydroxy-1-(methylamino)propyl)phenyl)-5-(trifluoromethyl) benzamide] | > 80% |
| Cc1cc(F)ccc1Oc1cc(C2CC2)c(C(F)(F)F)cc1C(=O)Nc1ccc(F)c(C(CCO)N(C)C)c1 (centres unmarked) [Example 8, 4-Cyclopropyl-N-(3-(1-(dimethylamino)-3-hydroxypropyl)-4-fluorophenyl)-2-(4-fluoro-2-methylphenoxy)-5-(trifluoromethyl) benzamide] | > 80% |
| Cc1cc(F)ccc1Oc1cc(C2CC2)c(C(F)(F)F)cc1C(=O)Nc1ccc(F)c(C(N)C(N)=O)c1 (centres unmarked) [Example 9, 4-Cyclopropyl-N-(3-(1,2-diamino-2-oxoethyl)-4-fluorophenyl)-2-(4-fluoro-2-methylphenoxy)-5-(trifluoromethyl) benzamide] | > 80% |
| CNC(C(N)=O)c1cc(NC(=O)c2cc(C(F)(F)F)c(C3CC3)cc2Oc2ccc(F)cc2C)ccc1F (centres unmarked) [Example 10, N-(3-(2-amino-1-(methylamino)-2-oxoethyl)-4-fluorophenyl)-4-cyclopropyl-2-(4-fluoro-2-methylphenoxy)-5-(trifluoromethyl) benzamide] | > 80% |
| Cc1cc(F)ccc1Oc1cc(C2CC2)c(C(F)(F)F)cc1C(=O)Nc1ccc(F)c(C(N)CO)c1 (centres unmarked) [Example 11, N-(3-(1-Amino-2-hydroxyethyl)-4-fluorophenyl)-4-cyclopropyl-2-(4-fluoro-2-methylphenoxy)-5-(trifluoromethyl) benzamide] | > 80% |
| Cc1cc(F)ccc1Oc1ccc(C(F)(F)F)cc1C(=O)Nc1ccc(F)c(CN)c1 [Example 12, N-(3-(Aminomethyl)-4-fluorophenyl)-2-(4-fluoro-2-methylphenoxy)-5-(trifluoromethyl) benzamide] | 50 to 80% |
| Cc1cc(F)ccc1Oc1ccc(C(F)(F)F)cc1C(=O)Nc1ccc(F)c(CNCC(N)=O)c1 [Example 13] | 20 to 50% |
| Cc1cc(F)ccc1Oc1ccc(C(F)(F)F)cc1C(=O)Nc1ccc(F)c(C(C)N)c1 (centres unmarked) [Example 14, N-(3-(1-aminoethyl)-4-fluorophenyl)-2-(4-fluoro-2-methylphenoxy)-5-(trifluoromethyl) benzamide] | 50 to 80% |
| Cc1cc(F)ccc1Oc1ccc(C(F)(F)F)cc1C(=O)Nc1ccc(F)c(C2NCCNC2=O)c1 (centres unmarked) [Example 18, 2-(4-Fluoro-2-methylphenoxy)-N-(4-fluoro-3-(3-oxopiperazin-2-yl)phenyl)-5-(trifluoromethyl) benzamide] | < 20% |
| Cc1cc(F)ccc1Oc1cc(C2CC2)c(C(F)(F)F)cc1C(=O)Nc1ccc(F)c(C(N)C2CCNC2=O)c1 (centres unmarked) [Example 19, N-(3-(amino (2-oxopyrrolidin-3-yl)methyl)-4-fluorophenyl)-4-cyclopropyl-2-(4-fluoro-2-methylphenoxy)-5-(trifluoromethyl) benzamide] | > 80% |
| Cc1cc(F)ccc1Oc1cc(C2CC2)c(C(F)(F)F)cc1C(=O)Nc1ccc(F)c(C(N)CC(C)O)c1 (centres unmarked) [Example 20, N-(3-(1-Amino-3-hydroxybutyl)-4-fluorophenyl)-4-cyclopropyl-2-(4-fluoro-2-methylphenoxy)-5-(trifluoromethyl) benzamide] | 50 to 80% |
| Cc1cc(F)ccc1Oc1cc(C2CC2)c(C(F)(F)F)cc1C(=O)Nc1ccc(F)c(C(N)C(F)CO)c1 (centres unmarked) [Example 22, N-(3-(1-Amino-2-fluoro-3-hydroxypropyl)-4-fluorophenyl)-4-cyclopropyl-2-(4-fluoro-2-methylphenoxy)-5-(trifluoromethyl) benzamide] | > 80% |
| Cc1cc(F)ccc1Oc1cc(C2CC2)c(C(F)(F)F)cc1C(=O)Nc1ccc(F)c(C(N)CCN)c1 (centres unmarked) [Example 24, 4-Cyclopropyl-N-(3-(1,3-diaminopropyl)-4-fluorophenyl)-2-(4-fluoro-2-methylphenoxy)-5-(trifluoromethyl) benzamide] | > 80% |
| Cc1cc(F)ccc1Oc1ccc(C(F)(F)F)cc1C(=O)Nc1ccc(F)c(C(O)C2CCNC2=O)c1 (centres unmarked) [Example 25, 2-(4-fluoro-2-methylphenoxy)-N-(4-fluoro-3-(hydroxyl (2-oxopyrrolidin-3-yl)methyl)phenyl)-5-(trifluoromethyl) benzamide] | 20 to 50% |
| Cc1cc(F)ccc1Oc1ccc(C(F)(F)F)cc1C(=O)Nc1ccc(F)c(C(O)C(N)=O)c1 (centres unmarked) [Example 26, N-(3-(2-Amino-1-hydroxy-2-oxoethyl)-4-fluorophenyl)-2-(4-fluoro-2-methylphenoxy)-5-(trifluoromethyl) benzamide] | 20 to 50% |

Same assay, conditions: HEK293, read-out: Inhibition ratio of Nav1.8 (Activity of inhibition)

| SMILES | inhibition at 0.1 µM |
| --- | --- |
| Cc1cc(F)ccc1Oc1ccc(C(F)(F)F)cc1C(=O)Nc1ccc(F)c(C(N)C(C)C(N)=O)c1 (centres unmarked) [Example 4, N-(3-(1,3-Diamino-2-methyl-3-oxopropyl)-4-fluorophenyl)-2-(4-fluoro-2-methylphenoxy)-5-(trifluoromethyl) benzamide] | 50 to 80% |
